Experiments:
[1] = Infusion into the CSF at low flow rates (IT or ICV), overall statements on distribution; format: in vivo, rhesus monkey
Text: (§1) CADD ambulatory infusion pumps were used to deliver gadolinium (Gd) labeled diethylene triamine pentaacetic acid (DTPA) or Gd-labeled albumin to rhesus monkeys, either intrathecally or intracerebroventricularly. Distribution of the Gd-labeled agents was tracked in-life via magnetic resonance imaging (MRI).

[2] = Intracerebroventricular (lateral ventricle) infusion at low flow rates, distribution tracked by MRI; format: in vivo, rhesus monkey; conditions: ICV
Description: as §1
(§2) For the Gd-DTPA studies, various concentrations of the Gd-DTPA were administered. The Gd-DTPA was administered intrathecally at L2 or intracerebroventricularly via a lateral ventricle at a variety of flow rates. Within a given monkey various flow rates were tested, followed by a washout period with phosphate buffered saline (PBS). An example study design that was used is presented below in Table 2:
Referring now to FIGS. 8A-F, MM images of a rhesus monkey receiving various concentrations of Gd-DPTA intracerebroventricularly at various flow rates are shown. FIG. 8A is an MRI image of a monkey receiving PBS prior to infusion of the Gd-DPTA. FIG. 8B is an MM image of a monkey receiving 486 mg/ml at 0.048 ml/day. FIG. 8C is an MRI image of a monkey receiving 280 mg/ml at 0.1 ml/day. FIG. 8D is an MRI image of a monkey receiving 70 mg/ml at 0.4 ml/day. FIG. 8E is an MRI image of a monkey receiving 35 mg/ml at 0.8 ml/day. FIG. 8F is an MM image of a monkey receiving 22 mg/ml at 1.2 ml/day. […] Accordingly, broad distribution appears to be achievable at low flow rates, regardless of the CSF site of administration.
Referring now to FIGS. 11A-F, MRI images of a rhesus monkey receiving various concentrations of Gd-albumin intracerebroventricularly at various flow rates are shown. FIG. 11A is an MM image of a monkey receiving PBS prior to infusion of the Gd-albumin. FIG. 11B is an MM image of a monkey receiving 100 mg/ml at 0.1 ml/day at one day of infusion. FIG. 11C is an MRI image of a monkey receiving 100 mg/ml at 0.4 ml/day at one day of infusion. FIG. 11D is an MRI image of a monkey receiving 100 mg/ml at 0.4 ml/day at three days of infusion. FIG. 11E is an MRI image of a monkey receiving 100 mg/ml at 0.8 ml/day at one day of infusion. FIG. 11F is an MRI image of a monkey receiving 64 mg/ml at 1.2 ml/day at one day of infusion.

[3] = Intrathecal (L2) infusion at low flow rates, distribution tracked by MRI; format: in vivo, rhesus monkey
Description: as §1, §2
While not detectable at lower concentrations, it is believed that the distribution of the lower concentration agent was similar to that observed at the 70 mg/ml concentration at similar flow rates. […] FIG. 6A is an MRI image of the same monkey prior to infusion of Gd-DTPA.
For the Gd-albumin studies, various concentrations of the Gd-albumin were administered intrathecally at L2 at various flow rates. FIGS. 9A-E are MRI images of rhesus monkeys receiving intrathecal Gd-albumin.

[4] = humans, intrathecal, constant rate of 0.5 ml/day; cited from earlier work

SMILES | distribution following infusion into the CSF [1] | steady state distribution in the CSF ([2]; 0.048 mL/day) | steady state distribution in the CSF ([2]; 0.1 mL/day) | distribution within the CSF ([2]; 0.1 mL/day for a period of 6 hours) | distribution in the CSF (FIG. 8) ([2]; flow rates of about 0.05 ml/day or greater, 22-486 mg/ml) | uptake by brain tissue (FIG. 7B) ([3]; IT L2, 70 mg/ml, 2.4 ml/day) | distribution around the spinal cord (FIG. 7D) ([3]; IT L2, 70 mg/ml, 2.4 ml/day, steady state) | distribution in the CSF (FIG. 6) ([3]; IT L2, all flow rates of about 0.4 ml/day or greater) | distribution in the CSF ([3]; IT, 0.1 mL/day) | distribution in the CSF ([3]; IT, 0.4 mL/day, 70 mg/ml) | detectability by MRI ([3]; IT, 0.4 mL/day, lower concentrations (17.5 mg/ml, 5.8 mg/ml, 2.9 mg/ml)) | MRI signal intensity ([3]; IT, 2.4 ml/day (100 microliters per hour)) | supraspinal side effects [4]
O=C([O-])CN(CCN(CC(=O)[O-])CC(=O)O)CCN(CC(=O)[O-])CC(=O)O.[Gd+3] [Gd-DTPA, gadolinium (Gd) labeled diethylene triamine pentaacetic acid (DTPA)] | broadly distributed | evident in the CSF compartments in and around the brain, but not the spinal cord | complete CSF coverage | distributed broadly throughout the CSF in and around the brain and spinal cord | broadly distributed in the CSF, including in the intrathecal space | appears to be taken up by the parenchymal tissue of the brain | distributed in a circumferential manner around the intrathecal space | broad distribution was observed | confined the molecule in the IT space | broadly distributed throughout the CSF | not appreciably detectable by MRI | signal was most intense | 
NCC(CC(=O)O)c1ccc(Cl)cc1 (centres unmarked) [baclofen] |  |  |  |  |  |  |  |  |  |  |  |  | do not appear to suffer from any supraspinal side effects
CN1CC[C@]23c4c5ccc(O)c4O[C@H]2[C@@H](O)C=C[C@H]3[C@H]1C5 [morphine] |  |  |  |  |  |  |  |  |  |  |  |  | do not appear to suffer from any supraspinal side effects

— US20200323897A1, “METHODS FOR DISTRIBUTING AGENTS TO AREAS OF BRAIN” (Medtronic, Inc., priority 2010, published 2020)
